Results as given in publication PMC10111420, “Optimization of Host Cell-Compatible, Antimicrobial Peptides Effective against Biofilms and Clinical Isolates of Drug-Resistant Bacteria” (ACS Infectious Diseases, 2023).
Where a SMILES comes first, the peptide text is derived from it. [ ]: non-standard residue; d: D form. d(hArg) = N=C(N)NCCCC[C@@H](N)C(=O)O

Key:
[1] = tested on: human RBCs; assay type: cell-based
Procedure: Human O+ erythrocytes were obtained from Interstate Blood Bank, Inc. Red blood cells were subjected to four or more cycles of centrifugation at 1000g with resuspension in fresh PBS. Following the final wash step, the supernatant was clear and colorless. RBC concentration was determined using a standard hemocytometer.
Peptide was serially diluted in PBS starting at a concentration of 100 μM. The final volume of peptide in each well was 50 μL. To each well, 50 μL of RBCs in PBS at 2 × 10^8 cells/mL was added. As a positive lysis control, 1% Triton was used. The mixtures were incubated at 37 °C for 1 h, after which they were centrifuged at 1000g for 5 min. After centrifugation, 10 μL of supernatant was transferred to 90 μL of DI H2O in a fresh 96-well plate. The absorbance of released hemoglobin at 410 nm was recorded, and the fractional hemolysis was calculated based on the 100 and 0% lysis controls. At least three independent experiments were performed. Results shown are averages.

[2] = tested on: WI-38 human fibroblast cells; assay: in vitro; assay type: cell-based
Procedure: The day before cytotoxicity experiments, the 10,000 cells/well were plated in a 96-well tissue-culture plate. […] To perform the cytotoxicity assay, media was removed from the wells and replaced with peptide solutions. […] The plate was read for SYTOX fluorescence every 5 min for an hour with an excitation wavelength of 504 nm and an emission wavelength of 523 nm. Percent cytotoxicity was calculated at 60 min using the 100 and 0% lysis controls. At least three independent experiments were averaged.

`CC(C)C[C@@H](NC(=O)[C@@H](CCCNC(=N)N)NC(=O)[C@H](N)CCCNC(=N)N)C(=O)N[C@H](C)C(=O)N[C@H](Cc1ccccc1)C(=O)N[C@H](C)C(=O)N[C@H](Cc1ccccc1)C(=O)N[C@H](CCCNC(=N)N)C(=O)N[C@H](CCCNC(=N)N)C(=O)N[C@H](Cc1c[nH]c2ccccc12)C(=O)N[C@H](C)C(=O)N[C@H](CCCNC(=N)N)C(=O)N[C@H](CCCNC(=N)N)C(N)=O` [D-CONGA-FLIP] (H-[dR][dR][dL][dA][dF][dA][dF][dR][dR][dW][dA][dR][dR]-NH2; N-terminus and C-terminus assumed) was tested, and the “Hemolysis at 100 μM (fractional hemolysis)” value [1] was 0.05 and the EC50 [2] was 143 µM.
For `CC(C)C[C@@H](NC(=O)CNC(=O)[C@@H](CCCNC(=N)N)NC(=O)[C@@H](CCCNC(=N)N)NC(=O)[C@@H](C)NC(=O)[C@@H](Cc1c[nH]c2ccccc12)NC(=O)[C@@H](CCCNC(=N)N)NC(=O)[C@H](N)CCCNC(=N)N)C(=O)N[C@H](C)C(=O)N[C@H](Cc1ccccc1)C(=O)N[C@H](C)C(=O)N[C@H](Cc1ccccc1)C(=O)N[C@H](CCCNC(=N)N)C(=O)N[C@H](CCCNC(=N)N)C(N)=O` [D-CONGA-G7] (H-[dR][dR][dW][dA][dR][dR]G[dL][dA][dF][dA][dF][dR][dR]-NH2; N-terminus and C-terminus assumed), the “Hemolysis at 100 μM (fractional hemolysis)” value [1] was 0.07 and the EC50 [2] was 235 µM.
For `CC(C)C[C@@H](NC(=O)[C@@H](CCCCNC(=N)N)NC(=O)[C@@H](CCCCNC(=N)N)NC(=O)[C@@H](C)NC(=O)[C@@H](Cc1c[nH]c2ccccc12)NC(=O)[C@@H](CCCNC(=N)N)NC(=O)[C@H](N)CCCNC(=N)N)C(=O)N[C@H](C)C(=O)N[C@H](Cc1ccccc1)C(=O)N[C@H](C)C(=O)N[C@H](Cc1ccccc1)C(=O)N[C@H](CCCNC(=N)N)C(=O)N[C@H](CCCNC(=N)N)C(N)=O` [D-CONGA-HomoR] (H-[dR][dR][dW][dA][d(hArg)][d(hArg)][dL][dA][dF][dA][dF][dR][dR]-NH2; N-terminus and C-terminus assumed), the “Hemolysis at 100 μM (fractional hemolysis)” value [1] was 0.06 and the EC50 [2] was 143 µM.
In the case of `CC(C)C[C@@H](NC(=O)[C@@H](CCCNC(=N)N)NC(=O)[C@@H](CCCNC(=N)N)NC(=O)[C@@H](Cc1c[nH]c2ccccc12)NC(=O)[C@@H](CCCNC(=N)N)NC(=O)[C@H](N)CCCNC(=N)N)C(=O)N[C@H](C)C(=O)N[C@H](Cc1ccccc1)C(=O)N[C@H](C)C(=O)N[C@H](Cc1ccccc1)C(=O)N[C@H](CCCNC(=N)N)C(=O)N[C@H](CCCNC(=N)N)C(N)=O` [D-CONGA-ΔA4] (H-[dR][dR][dW][dR][dR][dL][dA][dF][dA][dF][dR][dR]-NH2; N-terminus and C-terminus assumed), the “Hemolysis at 100 μM (fractional hemolysis)” value [1] is reported as 0.02 and the EC50 [2] is reported as 143 µM.
For `CC(C)C[C@@H](NC(=O)[C@@H](CCCNC(=N)N)NC(=O)[C@@H](CCCNC(=N)N)NC(=O)[C@@H](C)NC(=O)[C@@H](Cc1c[nH]c2ccccc12)NC(=O)[C@@H](CCCNC(=N)N)NC(=O)[C@H](N)CCCNC(=N)N)C(=O)N[C@H](C)C(=O)N[C@H](Cc1ccccc1)C(=O)N[C@H](Cc1ccccc1)C(=O)N[C@H](CCCNC(=N)N)C(=O)N[C@H](CCCNC(=N)N)C(N)=O` [D-CONGA-ΔA10] (H-[dR][dR][dW][dA][dR][dR][dL][dA][dF][dF][dR][dR]-NH2; N-terminus and C-terminus assumed), the “Hemolysis at 100 μM (fractional hemolysis)” value [1] was 0.02 and the EC50 [2] was 257 µM.
